Measurements published in patent US20030050302A1, “Treatment of conditions associated with amyloid processing using PKC activators” (Neurologic, Inc., priority 2000, published 2003).

Assays:
[1] = tested on: sAPP; assay: sAPP secretion in AD fibroblasts (immunoblot densitometry)
Procedure: (§2) Human fibroblasts were obtained from the Coriell Cell Repositories (Camden N.J.). […] The culture medium was DMEM supplemented with 10% serum (FBS, Gibeo). PC12 cells were obtained from the American Cell Culture Collection and grown to confluence in T75 flasks containing DMEM supplemented with 5% FPS (Gibeo), 10% horse serum (Biofluids) and 1% of a mixture of penicillin (5000 units/ml in G sodium) and streptomycin (5000 μg/ml).
(§3) Complete culture medium was removed just prior to experiments.
(§4) After two hours of incubation, the supernatant was removed and the secreted proteins were precipitated with 10% TCA and resuspended in Tris-glycine SDS electrophoresis sample buffer (Novex). The samples were boiled for 5 min, subjected to electrophoresis and later to immunoblotting for identification of sAPP.
(§5) Conventional immunoblotting techniques were employed. […] The volume of sample loaded was corrected for total cell protein per flask. Proteins were transferred electrophoretically to nitrocellulose membranes. The membranes were saturated with Blotto blocker (Pierce) and incubated overnight at 4° C. with 1:500 6E10 monoclonal antibody from Senetek. After washing, the membranes were incubated for 1 h at room temperature with the secondary antibody, alkaline phosphatase anti-mouse. IfG (Vector Laboratories) and developed using a BCIP/NBT subtrate kit (Vector Laboratories). The bands were quantitated by densitometric analyses (NIH Image, version 1.6) after obtaining a digital image of each membrane.

[2] = tested on: 113 pS TEA-sensitive K+ channel; assay: Patch-clamp single-channel recording in AD cell line AG06848; assay type: cell-based, human
Procedure: Patch-claim experiments were performed on 13 separate replicate representative experiments in a well-characterized AD cell line (AG06848) which is normally silent for the 113 pS TEA-sensitive K^+ channel (Etcheberrigaray et al., 1993). The experiment was performed at room temperature (21-23° C.) following standard procedures (Sakmann & Neher, 1983). The culture medium was replaced with the following solution (mM, NaCl 150, KCl 5, CaCl2 2, MgCl2 1, Hepes (NaOH) 10, pH 7.4, prior to recording. Benzolactam was added to a dish after ensuring that the patch is silent for the II 3 pS K^+ channel. The recording electrodes, filled with a high-K^+ solution (mM), KCl 140, CaCl2 2, MgCl2 1, Hepes (NaOH) 10, pH 7.4, were made from Blu Tip capillary tubes (i.d. 1.1-1.2 mm; Oxford Labware) by using a BB-CH-PC Mecanex puller to obtain pipette resistances that were ˜6 MΩ. An Axopath-IC amplifier was used to obtain records and a JVC Vetter PCM videorecorder was used to store the data on tape. The data were acquired and analyzed on a personal computer with a pClamp suite of programs by transferring the information via an Axolab interface from the amplifier. All three components-amplifier, interface, and software-were obtained from Axon Instruments (Foster City, Calif.).

[3] = tested on: age-matched control (AC) fibroblasts; assay: TEA-induced [Ca2+] elevation (calcium imaging) in age-matched control (AC) fibroblasts; details: 50 nM, 1 minute
Procedure: (§6) The culture medium in which cells were grown was Dulbecco's modified Eagle's medium (GIBCO) supplemented with 10% fetal calf serum (Biofluids, Inc.).
(§7) Round, 25-mm glass coverslips were flame-polished and placed inside 35-mm Nunc petri dishes. Cells were seeded (ca. 10-15 cells/mm^2) in these petri dishes and used when cell density was equivalent for all cell lines (ca 180 cells/mm^2). […] Briefly, culture medium was removed and cells were washed at least three times with basal salt solution (BSS; in mM: NaCl 140, KCl 5, CaCl2 2.5, MgCl2 1.5, Hepes 10, glucose 5, pH 7.4). The fluorescent probe was loaded by incubating cells in 1 μM fura 2-AM (Molecular Probes) in 1 ml BSS at room temperature (RT). One hour later, cells were washed thoroughly with BSS and 1 ml of fresh BSS was added for [Ca^2+] baseline measurements. […] A 40× Zeiss Fluor (oil immersion) objective lens was used.
A group of cells was treated with the PKC activator benzolactam prior to the TEA challenge. BL was dissolved in dimethyl sulfoxide (DMSO; Sigma) to achieve a final testing concentration of 50 nM when 1 ml of the dissolved BL was added to the dish 1 minute prior to TEA application. […] Seven to ten petri dishes of cells were tested from each cell line for each experimental condition. In almost all the cell lines, a minimum of 100 cells were tested per treatment per cell line (total 9231 cells). […]

[4] = target: PKC δ (Homo sapiens, UniProt Q05655); details: δ isoform vs α; cited from earlier work
[5] = target: T1, PKC α isoform (Homo sapiens, UniProt P17252); assay: Immunoblot of PKC α translocation cytosol to membrane in AD cell lines; assay type: cell-based; set-up: endogenous in cells; host or cells: human skin fibroblast lines from AD patients and AC controls; details: 50 nM
Procedure: (§1) Cells were grown to confluency (˜90%) in t-75 flasks. […] Fibroblasts were washed twice with ice-cold PBS, scraped in PBS, and collected by low-speed centrifugation. The pellets were resuspended in the following homogenization buffer: 20 mM Tris-HCl, pH 7.5, 2 mM EDTA, 2 mM EGTA, 5 mM DTT, 0.32 M sucrose, 2 mM PMSF, 25 μg/ml leupeptin. Homogenates were immersed in liquid nitrogen, thawed, and centrifuged at 12,000 g for 20 minutes, and the supernatants were used as the cytosolic fraction. The pellets were homogenized in the same buffer containing 1.0% Triton X-100, incubated in ice for 45 minutes, and centrifuged at 12,000 g for 30 minutes. The supernatant from this batch was used as the membranous fraction. […] The membrane was saturated with Blotto blocker (Pierce) by incubating it at RT for an hour. The primary antibody for PKC α isoform (Transduction Laboratories) was diluted (1:1000) in blocking solution and incubated with the membrane for 1 hour at RT. After incubation with the secondary antibody, alkaline phosphatasae antimouse IgG (Vector Laboratories), the membrane was developed using an alkaline phosphatase kit (Vector Laboratories) as per the manufacturer's instructions. The conditions for developing the membranes were kept as similar as possible. […]

[6] = target: T1, PKC α isoform; assay: Immunoblot of PKC α translocation cytosol to membrane in AC cell lines; assay type: cell-based; set-up: endogenous in cells; host or cells: human skin fibroblast lines from AC controls; details: AC cells, 50 nM
Procedure: as §1

[7] = tested on: sAPP; assay: sAPP secretion in PC12 cells (immunoblot densitometry); details: for sAPP secretion vs basal level: 10 μM
Procedure: as §2, §3, §4, §5

[8] = rats, personal communication; cited from earlier work
[9] = tested on: fibroblasts from AD patients; assay: TEA-induced [Ca2+] elevation (calcium imaging) in AD fibroblasts
Procedure: as §6, §7
A group of cells was treated with the PKC activator benzolactam prior to the TEA challenge. BL was dissolved in dimethyl sulfoxide (DMSO; Sigma) to achieve a final testing concentration of 50 nM when 1 ml of the dissolved BL was added to the dish 1 minute prior to TEA application. […] Seven to ten petri dishes of cells were tested from each cell line for each experimental condition. In almost all the cell lines, a minimum of 100 cells were tested per treatment per cell line (total 9231 cells). There were only three AC cell lines for which the number of cells in a couple of treatment groups was above 65 but below 100. Experiments for each cell line were repeated on at least one separate occasion (minimum 1-week interval). Response in a given cell was characterized as a double-fold increase in baseline [Ca^2+]

[10] = target: T2, PKC ε (Homo sapiens, UniProt Q02156); details: ε isoform vs α; cited from earlier work
T2 sequence (Q02156 1-737): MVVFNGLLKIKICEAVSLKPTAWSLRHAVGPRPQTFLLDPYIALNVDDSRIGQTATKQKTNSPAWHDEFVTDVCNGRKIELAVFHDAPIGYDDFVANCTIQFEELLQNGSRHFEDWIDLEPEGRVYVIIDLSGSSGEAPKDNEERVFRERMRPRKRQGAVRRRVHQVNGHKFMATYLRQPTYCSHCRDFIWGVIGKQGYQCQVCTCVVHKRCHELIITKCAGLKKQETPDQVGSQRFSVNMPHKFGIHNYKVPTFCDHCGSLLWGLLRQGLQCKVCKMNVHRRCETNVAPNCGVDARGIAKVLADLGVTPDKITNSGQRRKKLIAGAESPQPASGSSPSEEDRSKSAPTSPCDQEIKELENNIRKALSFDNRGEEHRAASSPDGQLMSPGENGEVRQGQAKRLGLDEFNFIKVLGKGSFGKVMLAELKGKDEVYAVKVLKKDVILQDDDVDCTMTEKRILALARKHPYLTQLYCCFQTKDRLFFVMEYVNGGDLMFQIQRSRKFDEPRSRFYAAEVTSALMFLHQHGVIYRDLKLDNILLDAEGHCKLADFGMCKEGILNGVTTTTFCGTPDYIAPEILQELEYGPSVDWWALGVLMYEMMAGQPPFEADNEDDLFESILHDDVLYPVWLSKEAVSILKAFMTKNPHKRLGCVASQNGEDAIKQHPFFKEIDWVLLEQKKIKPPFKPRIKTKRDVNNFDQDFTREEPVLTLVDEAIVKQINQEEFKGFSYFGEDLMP

[11] = tested on: sAPP; assay: sAPP secretion in age-matched control fibroblasts (immunoblot densitometry)
Procedure: as §2, §3, §4, §5

PKC δ, sequence (Q05655 whole entry, canonical isoform): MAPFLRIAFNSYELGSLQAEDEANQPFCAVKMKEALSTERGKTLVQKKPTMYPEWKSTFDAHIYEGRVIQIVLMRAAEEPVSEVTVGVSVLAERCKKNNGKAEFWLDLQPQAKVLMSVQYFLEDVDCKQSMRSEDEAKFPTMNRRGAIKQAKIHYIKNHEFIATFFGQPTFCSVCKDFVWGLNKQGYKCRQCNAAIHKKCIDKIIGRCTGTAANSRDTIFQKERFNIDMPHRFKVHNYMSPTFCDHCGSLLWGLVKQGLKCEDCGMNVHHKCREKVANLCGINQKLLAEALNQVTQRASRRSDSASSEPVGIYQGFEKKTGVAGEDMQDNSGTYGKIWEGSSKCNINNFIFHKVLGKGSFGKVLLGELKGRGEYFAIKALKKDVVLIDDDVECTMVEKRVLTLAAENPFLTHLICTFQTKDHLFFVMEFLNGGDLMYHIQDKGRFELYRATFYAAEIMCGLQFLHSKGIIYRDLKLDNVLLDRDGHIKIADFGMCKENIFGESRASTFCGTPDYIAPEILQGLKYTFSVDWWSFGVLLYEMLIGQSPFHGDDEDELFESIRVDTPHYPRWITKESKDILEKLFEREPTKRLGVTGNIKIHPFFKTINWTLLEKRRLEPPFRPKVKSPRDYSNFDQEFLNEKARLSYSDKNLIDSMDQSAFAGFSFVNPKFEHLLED

For `CCCCCCCCC#Cc1ccc2c(c1)C[C@@H](CO)NC(=O)[C@H](C(C)C)N2C` [BL, (2S, 5S)-8-(1′-decynyl)benzolactam], the “sAPP secretion vs basal” value ([1]; AD cell lines, 0.5 μM, 2 h) was “did not reach statistical significance”, the “sAPP secretion vs basal, post test significance” value ([1]; AD cell lines, 1 μM, 2 h) was “significance level of p<0.001” and the “sAPP secretion over basal” value ([1]; AD cell lines, 10 μM, 2 h) was “almost three-fold increase”. For the same compound, the “K+ channel activity after BL activation” value ([2]; AD cell line AG06848, 1 minute BL treatment) was 54%, the “cells showing unambiguous 113 pS K+ channel” value ([2]; of 13 recordings silent before BL, 1 minute BL treatment) was 7 and the “percentage of response to TEA vs untreated or DMSO-treated cells” value [3] was “did not differ”. The “affinity lower than for PKC α” value [4] was “at least 10 fold”, the “redistribution of PKC α from cytosol to membrane vs basal ratio” value ([5]; 1 minute) was “pronounced redistribution” and the “PKC α particulate/soluble ratio” value ([5]; 15 minutes) was 1.156. For the same compound, the “PKC translocation vs basal levels” value ([6]; 1 minute) was “ns”, the “PKC α particulate/soluble ratio” value ([6]; 15 minutes) was 1.72 and the sAPP secretion [7] was ~3 fold. The “sAPP secretion vs basal level” value [7] was “significantly increased”, the antitumoral activity [8] was “shows antitumoral activity” and the “percentage of cells responding to TEA vs untreated and DMSO-treated controls” value ([9]; AD cell lines, 50 nM, 1 minute) was “significantly increased”. The “percentage of cells responding to TEA” value ([9]; AD cells treated with BL (50 nM, 1 minute) before 100 mM TEA) was 19.58% and the “affinity lower than for PKC α” value [10] was “at least 10 fold”.
In the case of `CCCCCCCCCCCC(=O)Oc1ccc([C@H]2[C@@H](C(C)C)C(=O)N[C@@H]2CO)c2ccccc12` [LQ12], the “sAPP secretion vs basal level” value [7] is reported as “significantly increased”.
With `CCCC(=O)O[C@@H]1[C@@H](C)[C@@]2(O)[C@@H](C=C(CO)C[C@]3(O)C(=O)C(C)=C[C@@H]23)[C@@H]2C(C)(C)[C@]12OC(=O)CCC` [PDBu, phorbol 12,13-dibutyrate] the “sAPP secretion vs basal” value ([1]; AD cell lines, 0.5 μM, 2 h) was “maximal at 500 nM”, the “sAPP secretion vs basal” value ([1]; AD cell lines, 0.5, 1 and 10 μM, 2 h) was “statistically significant increases” and the “sAPP secretion vs basal” value ([11]; age-matched control cell lines, 0.5, 1 and 10 μM) was “statistical significance was not reached”. For the same compound, the “TEA response vs 4α-PHR-treated cells” value ([9]; AD cells, 50 nM, 45 minutes) was “did not differ” and the “TEA response, shorter incubation times” value ([9]; AD cells, 1 and 15 minutes incubation) was “without effect”.
In the case of `CN[C@@H]1C[C@H]2O[C@@](C)([C@@H]1OC)n1c3ccccc3c3c4c(c5c6ccccc6n2c5c31)C(=O)NC4` [staurosporine], the “effect on BL-induced sAPP secretion” value ([1]; AD cell lines, 0.5 μM staurosporine 30 min prior to BL) is reported as “completely prevented”, the “effect on phorbol (PDBu)-induced sAPP secretion” value ([1]; staurosporine pretreatment, data not shown) is reported as “significantly reduced” and the “sAPP secretion, staurosporine alone” value ([11]; age-matched control cell lines) is reported as “without effect”. For the same compound, the “effect on increase in sAPP secretion caused by 10 μM BL” value ([11]; age-matched control cell lines, 0.5 μM staurosporine pretreatment) was “effective in preventing”.
